Laboratory results from patent US10231980B2, “Cortexolone 17alpha-benzoate for use in the treatment of tumours” (COSMO TECHNOLOGIES LTD., priority 2014, dated 2019).
Where two headings read alike, the source gives them in different places.

Key:
[1] = system: MiaPaca2 (AR low); assay: ATP-dependent proliferation assay with 10 nM DHT, pancreatic cancer cells (Examples 3, 4, 7); settings: for IC50: Homo sapiens; for TI on Resting PBMC: IC50 resting PBMC / IC50 MiaPaca2; for TI on Stimulated PBMC: IC50 stimulated PBMC / IC50 MiaPaca2
Method: (§1) The experimental method consisted of: • 1. […] After 24 hrs, 10 nM DHT (dihydrotestosterone) with or without anti-androgen compounds, or DMSO vehicle (negative control) was added to the cultures. • 3.
(§2) Data from Experiment 1 were fitted through sigmoidal dose response curves and analyzed using Prizm statistical analysis software. […] The results from 2 sets of experiments follow.
(§3) Data from Experiment 1 was fitted through sigmoidal dose response curves and analyzed using Prizm statistical analysis software.

[2] = system: Panc1 (AR+); assay: as above; settings: for IC50: Homo sapiens; for TI on Resting PBMC: IC50 resting PBMC / IC50 Panc1; for TI on Stimulated PBMC: IC50 stimulated PBMC / IC50 Panc1
Method: as §1, §2, §3

[3] = system: stimulated PBMC; assay: IC50 on stimulated (actively dividing) PBMC; assay type: cell-based, human; settings: Homo sapiens, PBMC
Method: The compound toxicity was determined as follow:
Therapeutic Index=Safety/Potency=IC50 stimulated PBMC/IC50 cancer cell

[4] = system: resting PBMC; assay: IC50 on resting (quiescent) PBMC; assay type: cell-based, human; settings: Homo sapiens, PBMC
Method: The IC50 in PBMCs were tested in 2 different activation status: • stimulated—actively dividing cells • resting—quiescent, non-dividing cells
The IC50 in PBMCs were tested in 2 different activation status: • Stimulated—actively dividing cells • Resting—quiescent, non-dividing cells.
IC50 of the compounds was determined on fresh cells isolated from human blood (PBMC).

[5] = system: HT29; assay: MTT colorimetric assay on epithelial intestinal cancer cells; assay type: cell-based; settings: for Therapeutic Index (TI), Resting PBMC: IC50 resting PBMC / IC50 HT29; for Therapeutic Index (TI), Stimulated PBMC: IC50 stimulated PBMC / IC50 HT29
Method: The experiment was performed to test and define anticancer activity in vitro of Cortexolone 17α-benzoate and cortexolone 17α-valerate, 21-propionate on cell lines representatives of epithelial intestinal tumours, namely HT29. The experiment method consisted in: • 1. Monolayer HT-29 cells were plated in: 96-wells plates at the density of 2×10^4 cells/mL. The cells plated were kept at 37° C. in 5% CO2 and left to attach for 24 h. • 2. […] After 72 h of treatment, the MTT colorimetric assay was performed.

[6] = system: LNCaP; assay: ATP-dependent cell viability assay (Cell Titer Glo), Example 12; settings: LNCaP; for IC50: Homo sapiens
Description: (§4) Data shown in Table I were fitted through sigmoidal dose response curves and analyzed using Prizm statistical.

[7] = system: MiaPaca2; assay: as above; settings: for IC50: Homo sapiens
Description: as §4

[8] = system: PC3; assay: as above; settings: for IC50: Homo sapiens
Description: as §4

[9] = system: Panc1; assay: as above; settings: for IC50: Homo sapiens
Description: as §4

[10] = system: BxPC3; assay: In vitro proliferation, larger panel (Example 14); settings: for IC50: Homo sapiens
Description: as §4

[11] = system: MCF7; assay: In vitro proliferation / cytotoxic assay on breast cancer cells (Examples 14, 25); settings: for IC50: Homo sapiens
Method: as §4
For the cytotoxic assay, cells were seeded in 96-well flat bottom culture plates in media containing charcoal stripped serum. After 24 hours, test compounds were added to the cells. DMSO was used as the vehicle negative control and RU486 as the positive control. After 72 hour incubation, cells were harvested and lysed to determine cell viability using the Cell Titer Glow assay.

[12] = system: stimulated PBMC; assay: IC50 on stimulated (actively dividing) PBMC; assay type: cell-based, human; settings: PBMC Stim; Table IV
[13] = Experiment 1, 0 = higher toxicity in PBMC
[14] = Homo sapiens, HT-29, 72 h, read-out: Inhibition (%) on HT29

`C[C@]12CCC(=O)C=C1CC[C@@H]1[C@@H]2CC[C@@]2(C)[C@H]1CC[C@]2(OC(=O)c1ccccc1)C(=O)CO` [CB-03-06, cortexolone 17α-benzoate] was tested, and the IC50 ([1]; MIA PaCa-2, 72 h, MiaPaca2, Experiment 1, sigmoidal dose response fit, 10 nM DHT, 3 days) was 23 µM, the IC50 ([1]; MIA PaCa-2, MiaPaca2, Example 7, Experiment 1) was 17 µM and the IC50 ([1]; MIA PaCa-2, MiaPaca2, Example 7, Experiment 2) was 20 µM. For the same compound, the IC50 ([1]; MIA PaCa-2, MiaPaca2, Experiment 2, nonlinear regression least squares fit, additional experiments) was 20 µM, the “TI on Resting PBMC” value [1, 13] was 6 and the “TI on Resting PBMC” value ([1]; Experiment 2) was 4. For the same compound, the “TI on Stimulated PBMC” value [1, 13] was 7, the “TI on Stimulated PBMC” value ([1]; Experiment 2) was 5 and the IC50 ([2]; PANC-1, 72 h, Panc1, Experiment 1, sigmoidal dose response fit, 10 nM DHT, 3 days) was 30 µM. It also gave an IC50 ([2]; PANC-1, Panc1, Example 7, Experiment 1) of 23 µM, an IC50 ([2]; PANC-1, Panc1, Example 7, Experiment 2) of 28 µM and an IC50 ([2]; PANC-1, Panc1, Experiment 2, nonlinear regression least squares fit, additional experiments) of 28 µM. For the same compound, the “TI on Resting PBMC” value [2, 13] was 4, the “TI on Resting PBMC” value ([2]; Experiment 2) was 3 and the “TI on Stimulated PBMC” value [2, 13] was 5. For the same compound, the “TI on Stimulated PBMC” value ([2]; Experiment 2) was 3, the IC50 ([3]; read-out: IC50 on Stimulated PBMC, Example 7, Experiment 1) was 113 µM and the IC50 ([3]; read-out: IC50 on Stimulated PBMC, Example 7, Experiment 2) was 97 µM. For the same compound, the IC50 ([3]; read-out: In vitro proliferation IC50, PBMC STIMULATED, Table IV) was 97 µM, the IC50 ([3]; read-out: in vitro proliferation IC50, PBMC STIMULATED, Table III) was 97 µM and the IC50 ([4]; read-out: IC50 on Resting PBMC, Example 7, Experiment 1) was 100 µM. For the same compound, the IC50 ([4]; read-out: IC50 on Resting PBMC, Example 7, Experiment 2) was 85 µM, the IC50 ([4]; read-out: in vitro proliferation IC50, PBMC RESTING, Table III) was 85 µM and the “Therapeutic Index = IC50 resting PBMC/IC50 cancer cell” value ([5]; HT29, Table IV) was 6. The “Therapeutic Index = IC50 stimulated PBMC/IC50 cancer cell” value ([5]; HT29, Table VII) was 6, the IC50 ([5]; Homo sapiens, HT-29, 72 h, read-out: IC50 Calculated) was 16 µM and the inhibition at 0.8 µM [5, 14] was -1.55%. For the same compound, the inhibition at 4 µM [5, 14] was 20.4%, the inhibition at 20 µM [5, 14] was 53.6% and the inhibition at 100 µM [5, 14] was 92.2%. For the same compound, the inhibition at 500 µM [5, 14] was 92.3%, the IC50 ([5]; Homo sapiens, HT-29, read-out: In vitro proliferation IC50) was 16 µM and the IC50 ([5]; Homo sapiens, HT-29, read-out: in vitro proliferation IC50) was 13 µM. For the same compound, the “Therapeutic Index (TI), Resting PBMC” value ([5]; Experiment 1) was 6, the “Therapeutic Index (TI), Resting PBMC” value ([5]; Experiment 2) was 5 and the “Therapeutic Index (TI), Stimulated PBMC” value ([5]; Experiment 1) was 7. For the same compound, the “Therapeutic Index (TI), Stimulated PBMC” value ([5]; Experiment 2) was 6, the IC50 ([6]; 72 h) was 12 µM and the IC50 ([6]; read-out: In vitro proliferation IC50) was 12 µM. For the same compound, the IC50 ([6]; read-out: in vitro proliferation IC50) was 12 µM, the “Therapeutic Index = IC50 resting PBMC/IC50 cancer cell” value ([6]; Table IV) was 8 and the “Therapeutic Index = IC50 stimulated PBMC/IC50 cancer cell” value ([6]; Table VII) was 8. It also gave an IC50 ([7]; MIA PaCa-2, 72 h) of 20 µM, an IC50 ([7]; MIA PaCa-2, read-out: In vitro proliferation IC50) of 20 µM and an IC50 ([7]; MIA PaCa-2, read-out: in vitro proliferation IC50) of 20 µM. For the same compound, the “Therapeutic Index = IC50 resting PBMC/IC50 cancer cell” value ([7]; MiaPaca2, Table IV) was 5, the “Therapeutic Index = IC50 stimulated PBMC/IC50 cancer cell” value ([7]; MiaPaca2, Table VII) was 5 and the IC50 ([8]; PC-3, 72 h) was 28 µM. For the same compound, the IC50 ([8]; PC-3, read-out: In vitro proliferation IC50) was 28 µM, the IC50 ([8]; PC-3, read-out: in vitro proliferation IC50) was 28 µM and the “Therapeutic Index = IC50 resting PBMC/IC50 cancer cell” value ([8]; PC3, Table IV) was 3. For the same compound, the “Therapeutic Index = IC50 stimulated PBMC/IC50 cancer cell” value ([8]; PC3, Table VII) was 3, the IC50 ([9]; PANC-1, 72 h) was 28 µM and the IC50 ([9]; PANC-1, read-out: In vitro proliferation IC50) was 28 µM. The IC50 ([9]; PANC-1, read-out: in vitro proliferation IC50) was 28 µM, the “Therapeutic Index = IC50 resting PBMC/IC50 cancer cell” value ([9]; Panc1, Table IV) was 3 and the “Therapeutic Index = IC50 stimulated PBMC/IC50 cancer cell” value ([9]; Panc1, Table VII) was 3. For the same compound, the “Therapeutic Index = IC50 resting PBMC/IC50 cancer cell” value ([10]; BxPC3, Table IV) was 3, the “Therapeutic Index = IC50 stimulated PBMC/IC50 cancer cell” value ([10]; BxPC3, Table VII) was 3 and the IC50 ([10]; BXPC-3, read-out: In vitro proliferation IC50) was 28 µM. For the same compound, the IC50 ([10]; BXPC-3, read-out: in vitro proliferation IC50) was 28 µM, the IC50 ([11]; MCF7, 72 h) was 25 µM and the IC50 ([11]; MCF7, read-out: In vitro proliferation IC50) was 25 µM. For the same compound, the IC50 ([11]; MCF7, read-out: in vitro proliferation IC50) was 25 µM, the “Therapeutic Index = IC50 resting PBMC/IC50 cancer cell” value ([11]; MCF7, Table IV) was 4 and the “Therapeutic Index = IC50 stimulated PBMC/IC50 cancer cell” value ([11]; MCF7, Table VII) was 4. For the same compound, the “Therapeutic Index = IC50 resting PBMC/IC50 cancer cell” value [12] was 1.
